Measured values reported in patent publication US20090253778A1, “DNA composition against tumor stromal antigen FAP and methods of use thereof” (priority 2006, published 2009).

How the values were obtained:
[1] = test system: parent CT26 cell line (ATCC #CLR-2326); assay: IC50 in original parent CT26 cell line; assay type: cell-based, Murine; conditions: Mus musculus
Description: (§1) Two clones of CT26 colon cancer and D2F2 breast cancer cells, respectively, have acquired chemoresistance (see FIG. 1, Panel C).

[2] = test system: CT26 colon carcinoma cells; assay: nuclear apoptosis by Hoechst-33342 dye staining in chemoresistant CT26 clone; assay type: cell-based, Murine; conditions: resistant CT26 clone, 48 hours
Procedure: (§2) Murine CT26 and D2F2 carcinoma cells were cultured in the presence of either 1% DMSO, etoposide, 5-fluorouracil, doxorubicin, vinblastine or paclitaxel (Sigma, St. Louis, Mo.) at the concentrations indicated. After 48 hours, apoptotic nuclei were counted after incubation with the DNA-specific Hoechst-33342 dye (2 μM; Molecular Probes, Eugene, Oreg.).
as §1

[3] = test system: D2F2 breast carcinoma cells; assay: nuclear apoptosis by Hoechst-33342 dye staining in resistant D2F2 cells; assay type: cell-based, Murine
Procedure: as §2, §1

[4] = test system: D2F2 breast carcinoma cells; assay: prophylactic setting, orthotopic D2F2 tumor growth, with or without doxorubicin; assay type: in vivo, BALB/c mice
Procedure: Oral immunization, tumor cell challenge and treatment with doxorubicin. […] Med., 2002, 8: 1369-1375. Animals were challenged about 10 days later by subcutaneous (s.c.) injection of about 3×10^4 CT26 colon carcinoma cells in the left front flank or by orthotopic (o.t.) injection of about 3×10^5 D2F2 breast cancer cells in the left, second lowest mammary fat pad.
Tumor volume (in mm^3) was calculated by measuring the tumor in 2 dimensions (i.e., length and width, in millimeters) and calculating the volume as one half the length times the square of the width. In the therapeutic setting, the initial tumor cell inoculation was by intravenous (i.v.) injection of about 1×10^5 CT26 colon carcinoma cells followed about 3 and 10 days later by oral vaccinations with control vaccine or active DNA compositions. After about 18 days, the lungs were weighed (normal lung weight was about 0.2 g) and pulmonary tumor metastases were examined and scored by visual evaluation assessing the percentage of lung surface covered by fused metastases as follows: score of 0 for 0% coverage, score of 1 for less than about 20% coverage, score of 2 for about 20-50% coverage, score of 3 for greater than about 50% of lung surface covered. Treatment with doxorubicin was performed in groups of mice with about 10 mg/kg doxorubicin (Sigma) administered i.v., 5, 10 and 15 days after tumor challenge. […]

## O=c1[nH]cc(F)c(=O)[nH]1 [5-FU, 5-fluorouracil]
[1]
  IC50: ~1850 nM
[2]; concentration as high as 100 μM
  nuclear apoptosis (Hoechst-33342 dye staining): not able to induce nuclear apoptosis

## COc1cccc2c1C(=O)c1c(O)c3c(c(O)c1C2=O)C[C@@](O)(C(=O)CO)C[C@@H]3O[C@H]1C[C@H](N)[C@H](O)[C@H](C)O1 [doxorubicin]
[3]; FIG. 1, Panel C
  sensitivity of D2F2 cells: partially sensitive
[3]; resistant D2F2 cells, 48 hours, highest concentration of 1 μM
  nuclear apoptosis (Hoechst-33342 dye staining): able to induce nuclear apoptosis
[4]; orthotopic D2F2, doxorubicin or PBS 5, 10 and 15 days after challenge
  tumor growth: only able to suppress, but not eradicate tumor growth
[4]; single agent alone
  complete rejection of tumors: not observed

## CC[C@]1(O)C[C@@H]2CN(CCc3c([nH]c4ccccc34)[C@@](C(=O)OC)(c3cc4c(cc3OC)N(C)[C@H]3[C@@](O)(C(=O)OC)[C@H](OC(C)=O)[C@]5(CC)C=CCN6CC[C@]43[C@@H]65)C2)C1 [vinblastine]
[2]; only at 5 μM
  nuclear apoptosis (Hoechst-33342 dye staining): slight apoptotic effect
